Results published in US20090117089A1, “GLYCOLIPIDS AND ANALOGUES THEREOF AS ANTIGENS FOR NK T CELLS” (The Rockefeller University, priority 2005, published 2009).
Entries after “also recorded” stand apart in the source; their conditions may differ.

Key:
[1] = tested on: CD1d reactive T cell hybridomas with an invariant Vα14i T cell antigen receptor; assay: 1.2 hybridoma assay (IL-2 release by ELISA); format: cell-based, mouse; details: for IL-2 production (relative activity of fatty acyl chain analogs): 0.0001-1 μg/ml, CD1d transfected A20 cells; for IL-2 secretion: CD1d coated plates, Sphingomonas glycolipids and analogues
Protocol: As a measure of T cell activation, IL-2 release into the tissue culture medium was measured after 16 hours culture by an ELISA assay.
As a measure of T cell activation, IL-2 and IFN-γ release into the tissue culture medium was measured after 16 hours culture by an ELISA assay.

[2] = tested on: Vα24i human NKT cell line; assay: In vitro cytokine secretion assay using human NKT cell lines; format: cell-based; details: CD14+ DCs; 100-0.1 ng/mL; all doses
[3] = tested on: Vα24i human NKT cell line; assay: as above; format: cell-based; details: for IFN-γ secretion / IL-4 secretion: CD14+ immature dendritic cells, 10 μg/ml glycolipid (1-10 μg/ml for 3-O-sulfo-α-galactosylceramide), 10 IU/ml IL-2
Protocol: (§1) Human NKT cell lines, expressing the Vα24i T cell receptor as well as CD161, were generated as follows: Anti-CD161 monoclonal antibodies, and anti-CD14 monoclonal antibodies, each coupled to magnetic beads (Miltenyi biotec, Auburn, Calif.), were used sequentially to isolate CD161^+ cells and CD14^+ cells from leukopaks. Immature dendritic cells were generated from the CD14^+ cells after a two-day incubation in the presence of 300 U/ml GM-CSF (R&D systems, Minneapolis, Minn.) and 100 U/ml IL-4 (R&D systems, Minneapolis, Minn.). Following irradiation with 2000 rads, the immature dendritic cells were co-cultured with syngeneic CD161^+ cells in the presence of 100 ng/ml of alpha-galactosylceramide and 10 IU/ml of IL-2 (Invitrogen, Carlsbad Calif.) for 10 to 14 days. After stimulating the CD161^+ cells a second time with alpha-galactosylceramide-pulsed, irradiated immature dendritic cells, NKT cell lines were shown by flow cytometry to express both CD161^+ and V 24i TCR (99% purity).
(§2) IFN-γ and IL-4 secretion by the Vα 24i human NKT cell line was determined by ELISA (BD Pharmingen, San Diego, Calif.) after culture for 16 hours. For these assays, 1×10^5 Vα 24i human NKT cells were co-cultured with 4×10^5 irradiated, immature CD14^+ dendritic cells, in the presence of the glycolipid compounds at 10 μg/ml in a 96-well flat-bottom plate.
as §1, with “of 100-0.1” for “of 100”
In some cases, Hela cells were transfected with a human CD1d construct [Xing et al. 2005. Bioorg Med Chem 13: 2907], and were used to present the glycolipids, via pulsing with the respective compounds at the indicated concentration, to NKT lines.
as §2, with “IFN-γ” for “IFN-γ and IL-4”

spleen CD11c+ DCs = assay: DC maturation in vivo (surface markers, flow cytometry); design: species or system mouse; details: mouse, in vivo
Protocol: 2×10^7 irradiated J558-Ld^− cells, were injected i.v. or s.c. into Balb/c mice with or without α-Gal Cer as a DC maturation stimulus. In some experiments we compared α-Gal Cer to agonistic anti-CD40 mAb (1C10, 25 μg i.p.) or the toll like receptor ligands, poly IC ([…], Invivogen) or lipopolysaccharide (20 μgm, Sigma). The mice had been given CFSE-labeled PICTL CD8^+ T cells i.v. 1 d earlier, or were naive animals. In some experiments, mice were sacrificed 3 d later, and T cell division and activation in spleen were analyzed by flow cytometry. Additionally, 7 d or 2 months later, 5×10^6 live J558 tumor cells were inoculated subcutaneously. 5×10^6 Meth A fibrosarcoma was used as a control tumor for challenge. Tumor cell growth was measured with calipers every other day. Mice were scored positive for tumor as soon as tumors became palpable and grew progressively. Mice were euthanized when tumor size exceeded 400 mm^2.
T-cell division, phagocytosis of CFSE-labeled tumor cells and acquisition of cell surface-activation markers were determined by flow cytometry. Briefly, spleens were harvested and low-density splenocytes were stained with CD11c-APC and CD8α-PE, CD11b-PE, B220-PE or CD4-PE for the up-take examination. For in vivo proliferation of P1CTL T-cells, spleens were harvested and the splenocytes suspension was staining with CD8α-Cy, Vα8α-PE, CD25-PE, CD62L-PE. For intracellular cytokine staining, splenocytes were stimulated in vitro with 1 µg/ml P1A peptide in 5 μg/ml brefeldin A (Sigma-Aldrich) at 37° C. for 4 hrs. The cells were first stained with CD8α-Cy-Chrome™, fixed and permeabilized with cytofix-cytoperm buffer (BD Biosciences), and stained with PE conjugated mAbs to IL-2 or IFN-γ.
Flow cytometry. Acquisition of cell surface-activation markers was determined by flow cytometry. […] Spleen CD11c+ DCs were isolated using anti-CD11c magnetic beads and stained with CD11c-FITC, CD8α− allophycocyanin, and PE-Conjugated I-Ad, CD40, CD80, CD86, CD119, B7-H1 and B7-DC. We used a FACSCalibur™ with data analysis in FlowJo (Tree Star).

[4] = tested on: human CD161+ NK+NKT cells; assay: Cytokine secretion by human CD161+ NK+NKT cells in the presence of CD14+ DCs; format: cell-based
Protocol: Human Vα24i NKT cells response to synthetic Sphingomonas and sulfatide glycolipids, in terms of IFN-γ (a) and IL-4 (b) release after culture with 4×10^5 autologous immature CD14+ dendritic cells pulsed with the indicated glycolipid antigens at 10 μg/ml. Negative controls included similar numbers of NKT cells and dendritic cells, cultured without added glycolipid. Data represent mean±S.D. of duplicate well; (c) in vitro INF-γ secretion by human CD161^+ NK+NKT cells (2×10^5/well) in the presence of CD14^+ DCs (4×10^5/well) and 20 μg/ml of various glycolipids; (d) in vitro IL-4 secretion by human CD161^+ NK+NKT cells (2×10^5/well) in the presence of CD14^+ DCs (4×10^5/well) and 20 μg/ml of various glycolipids.

CCCCCCCCCCCCCC[C@@H](O)[C@@H](O)[C@H](COC1OC(CO)C(O)C(O)C1O)NC(=O)CCCCCc1ccccc1 (some centres unmarked) [Compound 83]
IL-2 production (relative activity of fatty acyl chain analogs) [1]: significant increase of IL-2 production
IFN-γ secretion compared to KRN [2]: consistently stimulating greater IFN-γ secretion
selectivity IFN-γ versus IL-4 production [3]: high ratio of IFN-γ/IL-4 activity

CCCCCCCCCCCCCC[C@@H](O)[C@@H](O)[C@H](COC1OC(CO)C(O)C(O)C1O)NC(=O)CCCCCCCc1ccccc1 (some centres unmarked) [Compound 84]
IL-2 production (relative activity of fatty acyl chain analogs) [1]: significant increase of IL-2 production
IFN-γ secretion compared to KRN [2]: consistently stimulating greater IFN-γ secretion

poly IC
phenotypic changes of DC maturation (CD40, CD86, MHC class II, B7-H1, B7-DC up, CD119 down) (spleen CD11c+ DCs): induced similar phenotypic changes of maturation

2-Hexacosylamino-1-O-(3-O-sulfo-α-D-galactopyranosyl)-D-ribo-1,3,4-octadecantriol, Sodium Salt [Compound 4]
biological activity in the 1.2 hybridoma assay (IL-2 secretion) [1]: caused significant IL-2 secretion
activity relative to αGalCer (dose response curves, IL-2) ([1]; data not shown): somewhat less active than αGalCer
IL-2 release from the hybridomas ([1]; glycolipid at 10 μg/ml, 16 hours culture): stimulated significant IL-2 release
IL-4 secretion by human NKT cells ([4]; glycolipid presented by CD14+ DCs, 10-20 μg/mL): efficiently stimulated IL-4 and IFN-γ secretion
interferon-γ secretion by human NKT cells ([4]; glycolipid presented by CD14+ DCs, 10-20 μg/mL, compared to α-GalCer, Sodium Salt): superior; also recorded: efficiently stimulated IL-4 and IFN-γ secretion
IFN-γ secretion [3]: approximately half that of α-GalCer
IL-4 secretion [3]: approximately half that of α-GalCer

CCCCCCCCCCCCCCC[C@@H](O)[C@H](COC1OC(CO)C(O)C(O)C1O)NC(=O)[C@@H](O)CCCCCCCCCCCC (some centres unmarked) [Compound 8]
IL-2 secretion [1]: less able to activate IL-2 secretion when compared with 5

CCCCCCCCCCCCCCC[C@@H](O)[C@H](COC1OC(C(=O)O)C(O)C(O)C1O)NC(=O)CCCCCCCCCCCCC (some centres unmarked) [Compound 5]
reactivity of human Vα24i NKT cells [3]: conserved

CCCCCCCCCCCCCCC[C@@H](O)[C@H](COC1OC(CO)C(O)C(O)C1O)NC(=O)CCCCCCCCCCCCC (some centres unmarked) [Compound 7]
IL-2 secretion [1]: greater IL-2 secretion

CCCCCCCCCCCCCCC[C@@H](O)[C@H](COC1OC(C(=O)O)C(O)C(O)C1O)NC(=O)[C@@H](O)CCCCCCCCCCCC (some centres unmarked) [Compound 6]
reactivity of human Vα24i NKT cells [3]: conserved

3-O-sulfo-β-galactosylceramide [Compound 10]
affinity for NKT lymphocytes [4]: minimal to no affinity for NKT lymphocytes
IFN-γ secretion [3]: elicit both IFN-γ and IL-4 production
IL-4 secretion [3]: elicit both IFN-γ and IL-4 production
